Several values for one entry are separate records, joined by “and”; a condition that tells them apart may be missing. Identical values can stand only once.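 Grown in 96-well plates, cells were treated for 48 hours with each compound at five concentrations. Insufficient inhibition: endpoint recorded as highest concentration tested. Abbreviation: GI50, concentration required for 50% inhibition of growth. TGI: concentration producing complete growth inhibition.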
How the values were obtained:
Assay in all cases: inhibition of tumour cell growth, NCI panel, 48 h
[1] = system: SF-539 CNS
[2] = system: DU-145 prostate
[3] = system: KM12 colon
[4] = system: HOP-92 NSCLC
[5] = system: HT29 colon
[6] = system: SF-268 CNS
[7] = system: CCRF-CEM leukemia
[8] = system: NCI-H460 lung
[9] = system: ACHN renal
[10] = system: TK-10 renal

SMILES | TGI [1] [µM] | TGI [2] | TGI [3] | TGI [4] | TGI [5] | TGI [6] | TGI [7] | TGI [8] [µM] | TGI [9] | TGI [10] [µM] | GI50 [3] | GI50 [4] | GI50 [5] | GI50 [8]
Clc1ccc(C(SCc2ccccc2)SCc2ccccc2)cc1 | > 10 | > 10 µM | > 10 µM | > 10 µM | > 10 µM | > 10 µM | > 10 µM | > 10 | > 10 µM | > 10 |  |  |  | 
O=[N+]([O-])c1cc2c(cc1/C=N/n1c(CO)nc3ccccc31)OCO2 | > 100 | > 100 µM | > 100 µM | > 100 µM | > 100 µM | > 100 µM | > 100 µM | > 100 | > 100 µM | > 100 |  |  |  | 
CCCCCCCCCCCCCCCC(=O)N(CCCCCCCCCCC(=O)O)CC(O)C(O)C(OC1OC(CO)C(O)C(O)C1O)C(O)CO (centres undefined) | 54.9 | > 100 µM | 34 µM | > 100 µM | 42.8 µM | 48.9 µM | 45.7 µM | > 100 | > 100 µM | > 100 |  |  |  | 
Cc1ccc(NC(=O)CSc2nc(=O)[nH]c3nc[nH]c23)cc1 | 52.8 | > 100 µM | > 100 µM | > 100 µM | > 100 µM | > 100 µM | > 100 µM | > 100 | > 100 µM | > 100 |  |  |  | 
CCNC(=O)c1c(O)c2ccccc2[nH]c1=O | > 100 | > 100 µM | > 100 µM | > 100 µM | > 100 µM | > 100 µM | > 100 µM | > 100 | > 100 µM | > 100 |  |  |  | 
CCOC(=O)CNc1nc(=O)c2c(=O)oc(Cl)cc2o1 | 22 | > 100 µM | 55.3 µM | 19.5 µM | 22.6 µM | 27.9 µM | 68.3 µM | 36.2 | 26.3 µM | 28 |  |  |  | 
O=CC12C3CCC1C2C(=O)C3 (centres undefined) | > 100 | > 100 µM | > 100 µM | > 100 µM | > 100 µM | > 100 µM | > 100 µM | > 100 | > 100 µM | > 100 |  |  |  | 
CCOP(=O)(OCC)C(N)c1ccc(Cl)cc1 (centres undefined) | > 100 | > 100 µM | > 100 µM | > 100 µM | > 100 µM | > 100 µM | > 100 µM | > 100 | > 100 µM | > 100 |  |  |  | 
Cc1cc(S(=O)(=O)Nc2nc(N)nc(N(C)C)n2)c(SCC(=O)O)cc1Cl | > 10 | > 10 µM | > 10 µM | > 10 µM | > 10 µM | > 10 µM | > 10 µM | > 10 | > 10 µM | > 10 |  |  |  | 
COc1cc2c(=O)cnoc2cc1O | > 100 | > 100 µM | > 100 µM | > 100 µM | > 100 µM | > 100 µM | > 100 µM | > 100 | > 100 µM | > 100 |  |  |  | 
O=C(O)CC1NCc2cc3ccccc3nc21 (centres undefined) | > 100 | > 100 µM | > 100 µM | > 100 µM | > 100 µM | > 100 µM | > 100 µM | > 100 | > 100 µM | > 100 |  |  |  | 
CCOC(=O)c1sc2[n+](c1C)C(=O)/C(=C/c1ccc([N+](=O)[O-])cc1)S2 | 54.7 | 92.3 µM | 47.5 µM | > 100 µM | 41.9 µM | 47.3 µM | > 100 µM | 45 | > 100 µM | 50.7 |  |  |  | 
CC1OC(OC2C(OC(=O)[C@]34CCC(C)(C)C[C@H]3C3=CC[C@@H]5[C@@]6(C)CC[C@H](OC7OC(C(=O)O)C(O)C(OC8OCC(O)C(O)C8O)C7O)C(C)(C)[C@@H]6CC[C@@]5(C)[C@]3(C)CC4)OCC(O)C2O)C(O)C(OC2OCC(O)C(O)C2O)C1OC1OCC(O)C(OC2OCC(O)C(O)C2O)C1O (some centres undefined) | 68.7 | 40.6 µM and 85.1 µM | 15.8 µM and 23.7 µM | 17.4 µM and 26.6 µM | 15 µM and 24.2 µM | 25.5 µM and 54.7 µM | 32.1 µM and 31.4 µM | > 100 | 19.6 µM and 25.1 µM | 24 | 4.39 µM and 11.3 µM | 6.12 µM and 13 µM | 4.28 µM and 11.9 µM | 49.5 µM and > 100 µM
C=C1C(=O)O[C@@H]2C[C@]3(C)CC[C@]4(C)[C@H](CC[C@@H]5[C@@]6(C)CCC(=O)C(C)(C)[C@@H]6CC[C@]54C)[C@H]3[C@H]12 | 38.2 | 34.7 µM | 42.8 µM | 26.2 µM | > 56.7 µM | 46.1 µM | 6.14 µM | 35 | 24.2 µM | 30.3 |  |  |  | 
O=C(O)/C(Cc1ccc([N+](=O)[O-])cc1)=N\O | > 100 | > 100 µM | > 100 µM | > 100 µM | > 100 µM | > 100 µM | > 100 µM | > 100 | > 100 µM | > 100 |  |  |  | 
CN(/N=C/c1ccnc2ccccc12)c1ccc(Cl)cc1[N+](=O)[O-] | > 100 | > 100 µM | > 100 µM | > 100 µM | > 100 µM | > 100 µM | > 100 µM | > 100 | > 100 µM | > 100 |  |  |  | 

From PubChem BioAssay (NCI)
